Measurements taken from US20050143358A1, “Methods for reducing body fat using vitamin D compounds” (Deltanoid Pharmaceuticals, Inc., priority 2003, published 2005).
Entries after “also recorded” stand apart in the source; their conditions may differ.

Legend:
ovariectomized rats = assay: Whole body DEXA body composition in ovariectomized rats (Example 3); type: in vivo, rat
From the text: FIG. 1 is a flow-chart illustrating the experimental design of the investigations described herein. Female Sprague Dawley rats (Taconic, German Town, N.Y.) were placed on a purified diet of 0.5% calcium and 0.4% phosphorus (AIN-76A Rodent Diet, prepared by Research Diet, Inc., New Brunswick, N.J.). At 4 months of age, a first subset (20) of the animals was sham-operated while a second subset (90) was ovariectomized. The time of ovariectomy is designated as week 0. Eight weeks after this surgery, the ovariectomized animals were divided into experimental groups receiving the following dosing regimen: 2MD, at doses of 0.5, 1.0, 2.5, 5.0 and 10 ng/kg/day; calcitriol (the active form of vitamin D), at doses of 50 ng/kg/day and 200 ng/kg/day; and human parathyroid hormone hPTH, at doses of 20 μg/kg/day. The 2MD and the calcitriol were administered orally in 100 μl of vegetable oil delivered to the back of the tongue by a throat tube, while the hPTH was administered sub-cutaneously.
Serum calcium was measured by tail bleeding at week 14 ([…]), week 21 and week 24. At week 24, the animals were sacrificed and the following endpoint measurements were taken: whole body DEXA; bone markers: osteocalcin and deoxypyridinoline (DPD); peripheral quantitative computed tomography (pQCT) of the distal femoral metaphysis (DFM) and femoral shaft (FS); micro-computerized tomography (micro-CT) of the DFM; serum parathyroid hormone (PTH); histomorphometry of the proximal tibial metaphysis (PTM), lumbar vertebra 3 (LV3) and trabecular separation (TS); and bone strength of the DFM, FS and lumbar vertebra 5 (LV5).
At week 0, the animals underwent surgical treatment as explained above. The animals were allowed to recuperate for 8 weeks before the dosing regimen began (0 wk). At 24 weeks post-surgery the animals were sacrificed and endpoint measurements were taken as explained above.

osteoblast cell line = conditions: Yamamoto et al., J. Biol. Chem. 278, 31756 (2003); cited from earlier work
[1] = studies described in Shevde et al.; cited from earlier work
[2] = cited from earlier work
human leukemia cells = conditions: biological testing of 19-nor-analogs; cited from earlier work
[3] = 200 ng/kg/day oral, DEXA, FIG. 4
[4] = 10 ng/kg/day oral, DEXA, FIG. 3
[5] = 10 ng/kg/day oral, DEXA, FIG. 4
[6] = doses of at least 2.5 ng/kg/day, DEXA, FIG. 4

Molecule: C=C1/C(=C\C=C2/CCC[C@]3(C)[C@@H]([C@H](C)CCCC(C)(C)O)CC[C@@H]23)C[C@@H](O)C[C@@H]1O [calcitriol, 1α,25-dihydroxyvitamin D3, reference compound]
- percent body fat compared to ovariectomized controls (ovariectomized rats; 50 ng/kg/day oral, DEXA, FIG. 3): at most only a minor difference
- percent body fat compared to ovariectomized controls (ovariectomized rats; 200 ng/kg/day oral, DEXA, FIG. 3): significant decrease
- body fat compared to ovariectomized controls (ovariectomized rats; [3]): less body fat
- body fat compared to sham-operated controls (ovariectomized rats; [3]): noticeable increase in body fat
- body weight compared to ovariectomized controls (ovariectomized rats; calcitriol group, DEXA, FIG. 4): only a tendency for reduction
- overall body weight compared to sham-controls (ovariectomized rats; calcitriol group, DEXA, FIG. 4): increase in overall body weight
- reduction of total body weight (ovariectomized rats; even at much higher doses than 2MD): did not act to significantly reduce

Molecule: C=C1[C@H](O)CC(=C/C=C2\CCC[C@]3(C)[C@@H]([C@@H](C)CCCC(C)(C)O)CC[C@@H]23)C[C@H]1O [2MD, 2-methylene-19-nor-(20S)-1α,25 dihydroxyvitamin D3]
- percent body fat compared to ovariectomized/vehicle controls (ovariectomized rats; 0.5 ng/kg/day oral, DEXA, FIG. 3): little to no effect; also recorded: noticeable trend for a reduced increase
- percent body fat compared to ovariectomized/vehicle controls (ovariectomized rats; 1 ng/kg/day oral, DEXA, FIG. 3): little to no effect
- percent body fat compared to ovariectomized controls (ovariectomized rats; 5 ng/kg/day oral, DEXA, FIG. 3): significant decrease
- body fat component compared to ovariectomized-vehicle controls (ovariectomized rats; 5 ng/kg/day oral, DEXA, FIG. 4): significantly less body fat
- bone mineral content (BMC) component compared to sham-operated controls (ovariectomized rats; 5 ng/kg/day oral, DEXA, FIG. 4): an increase
- lean component compared to sham-operated controls (ovariectomized rats; 5 ng/kg/day oral, DEXA, FIG. 4): an increase
- total body weight compared to sham/vehicle controls (ovariectomized rats; 5 ng/kg/day oral, DEXA, FIG. 4): significantly increased
- reduction in body fat compared with calcitriol at 200 ng/kg/day (ovariectomized rats; 5 ng/kg/day oral, FIG. 3): as great an effect
- percent body fat compared to ovariectomized controls (ovariectomized rats; [4]): significant decrease
- percent body fat compared to sham-operated controls (ovariectomized rats; [4]): noticeably less percent body fat
- body fat component compared to ovariectomized controls (ovariectomized rats; [5]): significantly lower
- body fat component compared to sham-operated controls (ovariectomized rats; [5]): less body fat
- body weight compared to ovariectomized controls (ovariectomized rats; [5]): significantly reduced
- lean body weight plus bone mineral content relative to sham operated animals (ovariectomized rats; [5]): increased
- lean body weight relative to sham operated animals (ovariectomized rats; [5]): increased
- total body weight compared to sham-control (ovariectomized rats; [5]): virtually the same
- decrease in the fat component compared with the group receiving 200 ng/kg/day calcitriol (ovariectomized rats; 10 ng/kg/day oral, FIG. 3): greater decrease
- increase in lean body component and bone mineral component compared with calcitriol at 50 ng/kg/day (ovariectomized rats; DEXA, FIG. 4): more positive effect
- body fat content (ovariectomized rats; OVX rats, 2MD 10 ng/kg/day oral, DEXA at week 24 (sham-operated group 25%)): 20%
- bone mineral content (BMC) relative to sham-operated or ovariectomized controls (ovariectomized rats; [6]): noticeable increase
- lean body weight relative to sham-operated or ovariectomized controls (ovariectomized rats; [6]): noticeable increase
- fat component relative to OVX-controls (ovariectomized rats; starting at the 1 ng/kg/day dose, DEXA, FIG. 4): trend for a decrease
- activity relative to calcitriol in inducing genes in the osteoblast cell line (osteoblast cell line): at least 100 fold
- intestinal calcium transport activity [1]: low
- bone calcium mobilization activity ([2]; studies described in Shevde et al.): high

Molecule: C[C@H](CCCC(C)(C)O)[C@H]1CC[C@H]2/C(=C/C=C3C[C@@H](O)C[C@H](O)C3)CCC[C@]12C [1α,25-dihydroxy-19-nor-vitamin D3, reference compound]
- calcium mobilizing activity ([2]; biological testing of 19-nor-analogs): very low
- potency in inducing cellular differentiation (human leukemia cells): high potency

B1: hPTH: human parathyroid hormone hPTH, administered sub-cutaneously at 20 μg/kg/day (peptide, UniProt P01270 32-115, looked up)
Parathyroid hormone: SVSEIQLMHNLGKHLNSMERVEWLRKKLQDVHNFVALGAPLAPRDAGSQRPRKKEDNVLVESHEKSLGEADKADVNVLTKAKSQ
modifications: Parathyroid hormone
notes: human parathyroid hormone hPTH, administered sub-cutaneously at 20 μg/kg/day
- percent body fat compared to ovariectomized controls (ovariectomized rats; 20 μg/kg/day sub-cutaneously, DEXA, FIG. 3): at most only a minor difference
